In brackets after ≈: the same amount, converted by molar mass. Positions of bridges follow the written chain, without caps; N, C: chain ends. Residues, ends and D or L forms follow the SMILES beside them.
Assays:
E. coli K99 = conditions: MHB, 2–7 × 10^5 CFU/ml, 37°C, 24 h, no turbidity, at least three independent repeats
Excerpt: (§1) The bacterial strains Escherichia coli (E. coli) ATCC 25922, E. coli K88, E. coli K99, Pseudomonas aeruginosa (P. aeruginosa) ATCC 27853, Escherichia coli (E. coli) UB1005, Salmonella typhimurium 14028, Salmonella pullorum (S. pullorum) C7913, S. typhimurium C7731, S. aureus ATCC 29213, MRSA ATCC 43300, and S. aureus ATCC 25923 were obtained from the College of Veterinary Medicine, Northeast Agricultural University, China. Lactobacillus plantarum (L. plantarum) 8014, Lactobacillus rhamnosus (L. rhamnosus) 7469, L. rhamnosus 1.0911, L. rhamnosus 1.0936, and L. rhamnosus 1.0385 were obtained from the Key Laboratory of Food College, Northeast Agricultural University, China.
(§2) As in a previous study, the antimicrobial activities of the AMPs were investigated using a modified standard microtiter dilution method ([Dong et al., 2014]). The peptides were serially diluted with a solution containing 0.01% acetic acid and 0.2% bovine serum albumin (BSA, Sigma) in 96-well plates. The bacteria grew to the mid-log phase and then were dissolved in MHB at concentration of 2–7 × 10^5 CFU/ml. The peptides and bacterial solution were mixed in equal volume in a 37°C incubator for 24 h. […] Mueller-Hinton broth with microorganisms was used as the positive control, and the pure broth was used as the negative control. The experiment was repeated at least three times independently.

E. coli K88 = conditions: MHB, 2–7 × 10^5 CFU/ml, 37°C, 24 h, no turbidity, at least three independent repeats
Excerpt: as §1, §2

S. pullorum 7913 = assay: MIC, modified microtiter dilution; format: cell-based, Salmonella pullorum; conditions: MHB, 2–7 × 10^5 CFU/ml, 37°C, 24 h, no turbidity, at least three independent repeats
Excerpt: (§3) The experiment was repeated at least three times independently.

P. aeruginosa 27853 = assay: MIC, modified microtiter dilution; format: cell-based, Pseudomonas aeruginosa; conditions: MHB, 2–7 × 10^5 CFU/ml, 37°C, 24 h, no turbidity, at least three independent repeats
Excerpt: as §3

RAW 264.7 cells = assay: Cytotoxicity, MTT dye reduction assay; format: cell-based, murine; conditions: highest concentration of 128 μM, 4 h, three independent repeats
Procedure: The cytotoxicity of peptides was determined by healthy human erythrocytes and the murine macrophage cell line RAW 264.7 via a hemolysis assay and MTT dye reduction assay, respectively ([Wang et al., 2018]). In the hemolysis assay, fresh hRBCs from healthy people were centrifuged for 5 min at 1,000 × g and then washed three times with PBS (pH = 7.2). The 100 μL erythrocyte suspension and peptides were incubated for 1.5 h in an incubator at 37°C. The 96-well plates were centrifuged at 1,000 × g for 5 min, and the supernatants were carefully aspirated. The absorbance at 570 nm indicated the leakage of hemoglobin. The hRBCs in the PBS sample was used as the negative control, and 0.1% Triton X-100 addition served as the positive control. In the MTT dye reduction assay, 1.0–2.0 × 10^5 cells were plated in 96-well plates and then treated with various concentrations of peptides for 4 h at 37°C in a 5% CO2 incubator. Subsequently, 50 μL of MTT was added to the plated cells at a final concentration of 0.5 mg/mL and incubated for 4 h. Then, the cells were centrifuged at 1000 × g for 5 min, and the supernatants were discarded. Formazan crystals were dissolved in 150 μL of DMSO, and the OD570 nm was measured using a microplate reader (TECAN GENios F129004; TECAN, Austria). The experiment was repeated three times independently.

[1] = test system: panel of bacterial species; assay: MIC against a panel of bacterial species (summary statements); format: cell-based
Excerpt: as §3

L. plantarum 8014 = assay: MIC, modified microtiter dilution; format: cell-based, Lactobacillus plantarum; conditions: 2–7 × 10^5 CFU/ml, 37°C, 24 h, no turbidity, at least three independent repeats
Excerpt: as §3

L. rhamnosus 1.0385 = assay: MIC, modified microtiter dilution; format: cell-based, Lactobacillus rhamnosus; conditions: 2–7 × 10^5 CFU/ml, 37°C, 24 h, no turbidity, at least three independent repeats
Excerpt: as §3

L. rhamnosus 1.0911 = assay: MIC, modified microtiter dilution; format: cell-based, Lactobacillus rhamnosus; conditions: 2–7 × 10^5 CFU/ml, 37°C, 24 h, no turbidity, at least three independent repeats
Excerpt: as §3

L. rhamnosus 1.0936 = assay: MIC, modified microtiter dilution; format: cell-based, Lactobacillus rhamnosus; conditions: 2–7 × 10^5 CFU/ml, 37°C, 24 h, no turbidity, at least three independent repeats
Excerpt: as §3

L. rhamnosus 7469 = assay: MIC, modified microtiter dilution; format: cell-based, Lactobacillus rhamnosus; conditions: 2–7 × 10^5 CFU/ml, 37°C, 24 h, no turbidity, at least three independent repeats
Excerpt: as §3

S. aureus 29213 [2] = assay: MIC in the presence of physiological salts; format: cell-based, Staphylococcus aureus; conditions: three independent repeats, unit not given in Table 4; for MIC against S. aureus 29213, FeCl3: 4 μM FeCl3; for MIC against S. aureus 29213, NH4Cl: 6 μM NH4Cl; for MIC against S. aureus 29213, ZnCl2: 8 μM ZnCl2; for MIC against S. aureus 29213, MgCl2: 1 mM MgCl2; for MIC against S. aureus 29213, CaCl2: 2 mM CaCl2; for MIC against S. aureus 29213, KCl: 4.5 mM KCl; for MIC against S. aureus 29213, NaCl: 150 mM NaCl
Procedure: as §3
The MIC of peptides was determined in the presence of salts at physiological concentrations (150 mM NaCl, 4.5 mM KCl, 6 μM NH4Cl, 8 μM ZnCl2, 1 mM MgCl2, 2 mM CaCl2, and 4 μM FeCl3) as described previously ([Dong et al., 2014]). All experiments were performed three times independently.

MRSA 43300 = format: cell-based, Staphylococcus aureus; conditions: MHB, 2–7 × 10^5 CFU/ml, 37°C, 24 h, no turbidity, at least three independent repeats
Excerpt: as §3

E. coli UB1005 = assay: MIC, modified microtiter dilution; format: cell-based, Escherichia coli; conditions: MHB, 2–7 × 10^5 CFU/ml, 37°C, 24 h, no turbidity, at least three independent repeats
Excerpt: as §3

E. coli 25922 = assay: MIC, modified microtiter dilution; format: cell-based, Escherichia coli; conditions: MHB, 2–7 × 10^5 CFU/ml, 37°C, 24 h, lowest concentration with no turbidity, at least three independent repeats
Excerpt: as §3

S. typhimurium 7731 = assay: MIC, modified microtiter dilution; format: cell-based, Salmonella typhimurium; conditions: MHB, 2–7 × 10^5 CFU/ml, 37°C, 24 h, no turbidity, at least three independent repeats
Excerpt: as §3

S. typhimurium 14028 = assay: MIC, modified microtiter dilution; format: cell-based, Salmonella typhimurium; conditions: MHB, 2–7 × 10^5 CFU/ml, 37°C, 24 h, no turbidity, at least three independent repeats
Excerpt: as §3

S. aureus 29213 [3] = assay: MIC, modified microtiter dilution; format: cell-based, Staphylococcus aureus; conditions: MHB, 2–7 × 10^5 CFU/ml, 37°C, 24 h, no turbidity, at least three independent repeats
Excerpt: as §3

S. aureus 25923 = assay: MIC, modified microtiter dilution; format: cell-based, Staphylococcus aureus; conditions: MHB, 2–7 × 10^5 CFU/ml, 37°C, 24 h, no turbidity, at least three independent repeats
Excerpt: as §3

Compound	MIC E. coli K99 (E. coli K99) [µM]	MIC E. coli K88 (E. coli K88) [µM]	MIC S. pullorum 7913 (S. pullorum 7913) [µM]	MIC P. aeruginosa 27853 (P. aeruginosa 27853) [µM]	RAW 264.7 cell survival rate (RAW 264.7 cells) [%]	MIC L. plantarum 8014 (L. plantarum 8014) [µM]	MIC L. rhamnosus 1.0385 (L. rhamnosus 1.0385) [µM]	MIC L. rhamnosus 1.0911 (L. rhamnosus 1.0911) [µM]	MIC L. rhamnosus 1.0936 (L. rhamnosus 1.0936) [µM]	MIC L. rhamnosus 7469 (L. rhamnosus 7469) [µM]	MIC against S. aureus 29213, FeCl3 (S. aureus 29213 [2]) [µM]	MIC against S. aureus 29213, NH4Cl (S. aureus 29213 [2]) [µM]	MIC against S. aureus 29213, ZnCl2 (S. aureus 29213 [2]) [µM]	MIC against S. aureus 29213, MgCl2 (S. aureus 29213 [2]) [µM]	MIC against S. aureus 29213, CaCl2 (S. aureus 29213 [2]) [µM]	MIC against S. aureus 29213, KCl (S. aureus 29213 [2]) [µM]	MIC against S. aureus 29213, NaCl (S. aureus 29213 [2]) [µM]	MIC MRSA 43300 (MRSA 43300) [µM]	MIC E. coli UB1005 (E. coli UB1005) [µM]	MIC E. coli 25922 (E. coli 25922) [µM]	also measured
C[C@@H]1NC(=O)[C@@H](N)CSSC[C@@H](C(=O)N[C@@H](CCCNC(=N)N)C(=O)N[C@@H](Cc2c[nH]c3ccccc23)C(=O)N[C@@H](Cc2c[nH]c3ccccc23)C(=O)N[C@@H](Cc2c[nH]c3ccccc23)C(=O)N[C@@H](CCCNC(=N)N)C(=O)N[C@@H](CCCNC(=N)N)C(N)=O)NC(=O)[C@H](Cc2ccccc2)NC(=O)[C@H](Cc2ccc(O)cc2)NC(=O)[C@H](CO)NC1=O [Peptide S1] (H-CASYFCRWWWRR-NH2; disulfide 1-6; N-terminus assumed)	4 (≈ 6.87 µg/mL)	32 (≈ 54.9 µg/mL)	8 (≈ 13.7 µg/mL)	>64	86	>64	>64	>64	>64	>64	8	4	1	4	8	4	4	4 (≈ 6.87 µg/mL)	8 (≈ 13.7 µg/mL)	8 (≈ 13.7 µg/mL)	concentrations suppressing growth of tested Gram-negative bacteria ([1]; all tested Gram-negative bacteria except P. aeruginosa 27853): 4 to 64 µM; MIC S. typhimurium 7731 (S. typhimurium 7731): 32 µM (≈ 54.9 µg/mL); MIC S. typhimurium 14028 (S. typhimurium 14028): 64 µM (≈ 110 µg/mL); MIC S. aureus 29213 (S. aureus 29213 [3]): 4 µM (≈ 6.87 µg/mL); MIC S. aureus 25923 (S. aureus 25923): 4 µM (≈ 6.87 µg/mL)
C[C@H](NC(=O)[C@H](C)NC(=O)[C@H](Cc1c[nH]c2ccccc12)NC(=O)[C@H](Cc1c[nH]c2ccccc12)NC(=O)[C@H](Cc1c[nH]c2ccccc12)NC(=O)[C@H](CCCNC(=N)N)NC(=O)[C@@H]1CSSC[C@H](N)C(=O)N[C@@H](C)C(=O)N[C@@H](CO)C(=O)N[C@@H](Cc2ccc(O)cc2)C(=O)N[C@@H](Cc2ccccc2)C(=O)N1)C(N)=O [Peptide S3] (H-CASYFCRWWWAA-NH2; disulfide 1-6; N-terminus assumed)	>64	>64	>64	>64	84	>64	>64	>64	>64	>64	>64	>64	>64	>64	>64	>64	>64	>64	>64	>64	antimicrobial activity against the tested microorganisms ([1]; all tested bacteria, up to the highest concentration measured): failed to show antimicrobial activity; MIC S. typhimurium 7731 (S. typhimurium 7731): >64 µM; MIC S. typhimurium 14028 (S. typhimurium 14028): >64 µM; MIC S. aureus 29213 (S. aureus 29213 [3]): >64 µM; MIC S. aureus 25923 (S. aureus 25923): >64 µM

From article PMC7516806, “Hybrid Antimicrobial Peptide Targeting Staphylococcus aureus and Displaying Anti-infective Activity in a Murine Model” (Frontiers in Microbiology, 2020)
